Like-named read-outs stand apart in the source and are kept apart here.
Columns and labels:
[1] = system: guinea pig distal colon longitudinal muscles; conditions: electrical stimulation, cited from earlier work; for pA2 value of the antagonistic action: against relaxing action of NECA
[2] = system: guinea pig distal colon longitudinal muscles; conditions: cited from earlier work; for EC50: KCl in the presence of tetrodotoxin, read-out: Relaxing action EC50
colon tract [3] = assay: Contraction of the colon tract with Carbachol; set-up: species or system rat
Protocol: (§1) The abdomen of a rat under anesthesia with ether was opened, and from the rectum to the cecum was excised therefrom and soaked in ice-cooled Tyrode solution (containing 136 mM NaCl, 2.7 mM KCl, 0.4 mM NaH2PO4.2H2O, 5.6 mM glucose, 11.9 mM NaHCO3, 1 mM MgCl2.6H2O, 1.8 mM CaCl2). Surrounding connective tissues were removed, and the intestinal tract was cut at positions apart by 1.5 cm from the rectum and by 3 cm from the cecum, to give a colon tract of about 3 cm in full length. Both the terminals of the colon tract were pinched respectively with Serrefines (trade name) to which a string had been connected, and the colon tract with the side of the cecum facing upward was immediately suspended in a Magnus tube filled with Tyrode solution previously warmed at 37° C., and then equilibrated by bubbling with a gas (O2/CO2=95/5). The string connected to the Serrefines (trade name) at the side of the cecum was suspended, and the change in the length of the colon tract was detected with an amplifier for strain pressure (Nihon Kohden Corporation).
Carbachol (Sigma) at each concentration diluted 100-fold was added accumulatively in a volume of 1/100 to the Magnus tube, and the change in the length of the colon tract was measured, and the length thereof in the absence of Carbachol was regarded as 0% contraction, and the length thereof in the presence of 1.44 μM Carbachol was regarded as 100% contraction. In the experiment, 3 samples were used.

SD IGS rats [4] = assay: Evaluation of defecation-promoting action (Tables 8 and 10); assay type: in vivo, rat
Description: For example, the defecation-promoting actions of 8-phenyltheophylline (“8-PT” in the table below) and 5-[6-amino-8-(3-fluorophenyl)-9H-9-purinyl]-1-methyl-1,2-di hydro-2-pyridinone (Compound II in the table below) disclosed in Example Number 5 described in WO 2001/2400 were as shown below. 8-PT can be easily produced according to the description of Drug Development Research 47: 45-53 (1999), or is easily available as a commercial product (in this test, it was purchased from Sigma).
That is, SD IGS rats (6- to 7-weeks-old, from Charles River) were placed in cages (3 animals/cage) and preliminarily allowed food and water ad libitum and raised for 1 week. On the day of the experiment, their weight was measured, a water-absorbing sheet was placed below each cage, and the animals were fasted but allowed water ad libitum throughout the experiment. Thee hours after fasting was initiated, the fecal pellets were recovered from each cage and observed for abnormality before the experiment, and then the compound suspended in 0.5% (w/v) methyl cellulose (MC) was orally administered in a dose of 5 ml/kg. On one hand, 0.5% (w/v) MC only was orally given to the control group. After administration of the compound, the rats were returned to the cage provided with a new water-absorbing sheet, and 180 minutes after the administration, the fecal pellets on the water-absorbing sheet were recovered from each cage, and the external appearance was observed, and the number of fecal pellets was counted. The number of fecal pellets is expressed per each cage.

SD IGS rats [5] = assay: Defecation-promoting action in rat (Test Example 2); assay type: in vivo; conditions: for The number of fecalpellets/3 rats: 180 minutes after administration
Protocol: (§2) SD IGS rats (6-weeks-old, from Charles River) were placed in cages (3 animals/cage) and preliminarily allowed food and water ad libitum and raised for 1 week. On the day of the experiment, their weight was measured, a water-absorbing sheet was placed below each cage, and the animals were fasted but allowed water ad libitum throughout the experiment. Three hours after fasting was initiated, the fecal pellets were recovered from each cage and observed for abnormality before the experiment, and then the compound suspended or dissolved in 0.5% (W/V) methyl cellulose (MC) was orally administered into each rat in a dose of 5 ml/kg. On one hand, 0.5% (W/V) MC only was orally given to the control group. After administering the compound, the rats were returned to the cage provided with anew water-absorbing sheet of known weight, and 180 minutes after the administration, the fecal pellets on the water-absorbing sheet were recovered from each cage, and the external appearance was observed, and the number of fecal pellets was counted. The number of fecal pellets is expressed per each cage (Table 4). After the fecal pellets were recovered, the water-absorbing sheet was weighed, and the weight determined by subtracting the initial weight of the water-adsorbing sheet from the weight after the experiment was regarded as the volume of urine and expressed as the volume of urine per 100 g of the body weight (Table 4).

[6] = Urine volume / diuretic action in rat (Test Example 2); assay type: in vivo; conditions: for Urine Volume (g/100 g body weight): 180 minutes
Protocol: as §2

SD IGS rats [7] = assay: Contribution of A2b inhibition to defecation-promoting action (Test Example 3); assay type: in vivo, rat; conditions: 180 minutes
Protocol: as §2
After administering the compounds, the rats were returned to the cage under which a new water-absorbing sheet had been installed, and after 180 minutes, the fecal pellets on the water-absorbing sheet were recovered from each cage, and the outward appearance was observed and the number of fecal pellets was counted. The number of fecal pellets is expressed per cage (Table 5).

colon tract [8] = assay: Inhibitory effect of adenosine receptor antagonist on suppressing action of NECA on Carbachol-stimulated contraction of the colon tract; set-up: species or system rat; conditions: for Contraction (%) Mean: Carbachol 0.3 μM + NECA 1 μM = 0%, Carbachol 0.3 μM = 100%
Protocol: as §1
(§3) In the experiment, 3 samples were used.

colon tract [9] = assay: Inhibitory effect of NECA on Carbachol-stimulated contraction of the colon tract; set-up: species or system rat; conditions: Carbachol 1.44 μM (singly added) = 100%
Protocol: as §1, with “Surrounding” for “The abdomen of a rat under anesthesia with ether was opened, and from the rectum to the cecum was excised therefrom and soaked in ice-cooled Tyrode solution (containing 136 mM NaCl, 2.7 mM KCl, 0.4 mM NaH2PO4.2H2O, 5.6 mM glucose, 11.9 mM NaHCO3, 1 mM MgCl2.6H2O, 1.8 mM CaCl2). Surrounding”
as §3

[10] = 3 mg/kg oral, Table 8, n = 4 cages/group
[11] = 10 mg/kg oral, Table 8, n = 4 cages/group
[12] = against NECA, KCl + tetrodotoxin

Compound: CCNC(=O)[C@H]1O[C@@H](n2cnc3c(N)nc(NCCc4ccc(CCC(=O)O)cc4)nc32)[C@H](O)[C@@H]1O [CGS21680, 2-p-[2-carboxyethyl]phenetylamino-5′-N-ethylarboxyamide adenosine]
- Relaxing action (in words) [1]: very weak
- Relaxing action (in words) ([2]; 1 μM, KCl + tetrodotoxin): did not act thereon

Compound: OC[C@H]1O[C@@H](n2cnc3c(NC4CCCC4)ncnc32)[C@H](O)[C@@H]1O [CPA]
- EC50 [2]: 12.6 µM

Compound: C[N+](C)(C)CCOC(N)=O [Carbachol]
- Contraction (%) Mean (colon tract [3]; Carbachol 0.01 μM, 1.44 μM Carbachol = 100%): 1.4%
- Contraction (%) Mean (colon tract [3]; Carbachol 0.04 μM, 1.44 μM Carbachol = 100%): 24.5%
- Contraction (%) Mean (colon tract [3]; Carbachol 0.14 μM, 1.44 μM Carbachol = 100%): 69.1%
- Contraction (%) Mean (colon tract [3]; Carbachol 0.44 μM, 1.44 μM Carbachol = 100%): 87.0%
- Contraction (%) Mean (colon tract [3]; Carbachol 1.44 μM (defined as 100%)): 100.0%

Compound: Cn1cc(-n2c(-c3cccc(F)c3)nc3c(N)ncnc32)ccc1=O [Compound II, 5-[6-amino-8-(3-fluorophenyl)-9H-9-purinyl]-1-methyl-1,2-di hydro-2-pyridinone]
- The number of fecalpellets/3 rats (SD IGS rats [4]; 1 mg/kg oral, Table 8, n = 4 cages/group): 12.5 ± 1.44 fecalpellets/3 rats
- The number of fecalpellets/3 rats (SD IGS rats [4]; [10]): 18.5 ± 1.94 fecalpellets/3 rats
- The number of fecalpellets/3 rats (SD IGS rats [4]; [11]): 20.75 ± 1.70 fecalpellets/3 rats

Compound: CCCn1c(=O)c2[nH]c(C3CCCC3)nc2n(CCC)c1=O [DPCPX]
- pA2 value of the antagonistic action [1]: 8.8
- pA2 value ([2]; against CPA, KCl + tetrodotoxin): 7.0
- pA2 value [2, 12]: 6.6

Compound: Nc1nc(N)c(-c2ccncc2)c(-c2cccc(F)c2)n1 [Example 1, 6-(3-Flurophenyl)-5-(4-pyridyl)-2,4-pyrimidine diamine]
- The number of fecalpellets/3 rats (SD IGS rats [4]; 3 mg/kg oral, Table 10, n = 6 cages/group): 14.83 ± 1.82 fecalpellets/3 rats
- The number of fecalpellets/3 rats (SD IGS rats [4]; 10 mg/kg oral, Table 10, n = 6 cages/group): 23.17 ± 2.94 fecalpellets/3 rats

Compound: Cn1c(=O)c2[nH]c(-c3ccccc3)nc2n(C)c1=O [Example 8-PT, 8-phenyltheophylline]
- The number of fecalpellets/3 rats (SD IGS rats [4]; [10]): 8.75 ± 1.75 fecalpellets/3 rats
- The number of fecalpellets/3 rats (SD IGS rats [4]; [11]): 13.75 ± 0.85 fecalpellets/3 rats
- pA2 value of the antagonistic action [1]: 6.5
- pA2 value [2, 12]: 5.7

Compound: CCCn1c(=O)c2nc(C34CC5CC(CC3C5)C4)[nH]c2n(CCC)c1=O [KW 3902]
- The number of fecalpellets/3 rats (SD IGS rats [5]; 0.3 mg/kg oral): 10.67 ± 2.08 fecalpellets/3 rats
- The number of fecalpellets/3 rats (SD IGS rats [5]; 1 mg/kg oral): 14.50 ± 1.18 fecalpellets/3 rats
- The number of fecalpellets/3 rats (SD IGS rats [5]; 3 mg/kg oral): 12.83 ± 1.66 fecalpellets/3 rats
- Dose at which the defecation-promoting action reaches the maximum (SD IGS rats [5]; rat, oral): 1 mg/kg
- Defecation-promoting action (in words) (SD IGS rats [5]; rat, oral, Table 4): exhibits a defecation-promoting action
- Urine Volume (g/100 g body weight) ([6]; 0.3 mg/kg oral): 2.08 ± 0.04 g/100 g body weight
- Urine Volume (g/100 g body weight) ([6]; 1 mg/kg oral): 2.15 ± 0.09 g/100 g body weight
- Urine Volume (g/100 g body weight) ([6]; 3 mg/kg oral): 2.01 ± 0.06 g/100 g body weight
- Diuretic action (comparison in words) ([6]; rat, oral): stronger diuretic action than Compound I
- The number of fecalpellets/3 rats (SD IGS rats [7]; 1 mg/kg together with KW 6002 (1 mg/kg)): 18.25 ± 1.49 fecalpellets/3 rats
- The number of fecalpellets/3 rats (SD IGS rats [7]; 1 mg/kg, without KW 6002): 9.00 ± 1.08 fecalpellets/3 rats

Compound: CCCN1C(=O)N2CC(CC)N=C2c2[nH]c(C34CC5CC(CC3C5)C4)nc21 (stereo not shown) [KW 20274]
- Contraction (%) Mean (colon tract [8]; antagonist 0.1 μM): −8.2%
- Contraction (%) Mean (colon tract [8]; antagonist 0.4 μM): −26.0%
- Contraction (%) Mean (colon tract [8]; antagonist 1.4 μM): −40.0%
- Contraction (%) Mean (colon tract [8]; antagonist 4.4 μM): −71.0%
- Inhibition of the suppressing effect of NECA on the contraction (in words) (colon tract [8]; rat colon tract, Carbachol + NECA): did not show any inhibitory effect

Compound: CCNC(=O)[C@H]1O[C@@H](n2cnc3c(N)ncnc32)[C@H](O)[C@@H]1O [NECA, 5′-N-ethylcarboxyamide adenosine]
- Contraction (%) Mean (colon tract [9]; NECA 0.1 μM): 89.0%
- Contraction (%) Mean (colon tract [9]; NECA 0.4 μM): 75.3%
- Contraction (%) Mean (colon tract [9]; NECA 14.4 μM): 54.9%
- EC50 [2]: 10.4 µM

— patent publication US20040259865A1, “Pyrimidone compounds and pharmaceutical compositions containing the same” (priority 2001, published 2004)
